Data on 15 compounds can be found in ChEMBL document CHEMBL4376850, “1-Benzylpyrrolidine-3-amine-based BuChE inhibitors with anti-aggregating, antioxidant and metal-chelating properties as multifunctional agents against Alzheimer's disease” (Eur J Med Chem, 2020).

Activity calls are given as the source filed them. The calls are words filed in the database; no cut-off is given here.

The inhibition is the change of the read-out against control, counted positive when it falls. What is called IC50 is the point on the concentration scale where inhibition reaches its midpoint.

The nature of test [1]: Antioxidant activity assessed as increase in total ferric ion reducing activity at 150 uM using FeCl3.H2O and TPTZ incubated for 5 mins by FRAP assay relative to control. The test is classed as functional. More on the design: scale not given: the % may be the effect or the level left.
Test [2] can be described thus: Antioxidant activity assessed as increase in total ferric ion reducing activity at 30 uM using FeCl3.H2O and TPTZ incubated for 60 mins by FRAP assay relative to control. The test is classed as functional. On the set-up: scale not given: the % may be the effect or the level left.
Test [3] in a line: Antioxidant activity assessed as ABTS radical scavenging activity at 75 uM measured after 5 mins by spectrophotometric assay relative to control. The test is classed as functional.
Test [4] can be described thus: Metal chelating activity assessed as Cu2+-compound complex formation at 50 uM after 30 mins by UV-Visible spectrophotometric method.
Test [5] can be described thus: Antioxidant activity assessed as ABTS radical scavenging activity at 75 uM measured after 30 mins by spectrophotometric assay relative to control. The class given is functional.
Test [6] is described as follows: Antioxidant activity assessed as ABTS radical scavenging activity at 150 uM measured after 30 mins by spectrophotometric assay relative to control. The class given is functional.
A short description of test [7]: Antioxidant activity assessed as increase in total ferric ion reducing activity at 75 uM using FeCl3.H2O and TPTZ incubated for 5 mins by FRAP assay relative to control. The test is classed as functional. More on the design: scale not given: the % may be the effect or the level left.
In test [8] the target is Acetylcholinesterase (Electrophorus electricus) (UniProt O42275). In words: Inhibition of Electrophorus electricus AChE at 10 uM using acetylthiocholine iodide as substrate preincubated for 5 mins followed by substrate addition and measured after 5 mins by Ellman's method relative to control.
Test [9] can be described thus: Antioxidant activity assessed as increase in total ferric ion reducing activity at 75 uM using FeCl3.H2O and TPTZ incubated for 60 mins by FRAP assay relative to control. The test is classed as functional. On the set-up: scale not given: the % may be the effect or the level left.
A short description of test [10]: Antioxidant activity assessed as increase in total ferric ion reducing activity at 75 uM using FeCl3.H2O and TPTZ incubated for 30 mins by FRAP assay relative to control. The test is classed as functional. More on the design: scale not given: the % may be the effect or the level left.
Test [11] can be described thus: Antioxidant activity assessed as increase in total ferric ion reducing activity at 150 uM using FeCl3.H2O and TPTZ incubated for 30 mins by FRAP assay relative to control. The test is classed as functional. More on the design: scale not given: the % may be the effect or the level left.
Test [12] is described as follows: Antioxidant activity assessed as ABTS radical scavenging activity at 150 uM measured after 60 mins by spectrophotometric assay relative to control. The test is classed as functional.
Test [13] can be described thus: Antioxidant activity assessed as increase in total ferric ion reducing activity at 30 uM using FeCl3.H2O and TPTZ incubated for 5 mins by FRAP assay relative to control. The test is classed as functional. More on the design: scale not given: the % may be the effect or the level left.
The target of test [14] is Amyloid-beta precursor protein (Homo sapiens) (UniProt P05067). Conditions: at 10 µM.
Description: Inhibition of amyloid beta (1 to 42) (unknown origin) aggregation at 10 uM expressed in Escherichia coli BL21 (DE3) incubated for 24 hrs by thioflavin T-based fluorometric assay relative to control
The target in test [15] is Cholinesterase (Equus caballus) (UniProt P81908). Briefly: Inhibition of equine serum BuChE at 10 uM using butyrylthiocholine chloride as substrate pre-incubated for 5 mins followed by substrate addition and measured after 5 mins by Ellman's method relative to control. (In general: Ellman's reagent forms a yellow product with free thiols.)
The nature of test [16]: Antioxidant activity assessed as ABTS radical scavenging activity at 150 uM measured after 5 mins by spectrophotometric assay relative to control. The test is classed as functional.
The nature of test [17]: Antioxidant activity assessed as ABTS radical scavenging activity at 75 uM measured after 60 mins by spectrophotometric assay relative to control. The class given is functional.
Test [18] can be described thus: Antioxidant activity assessed as ABTS radical scavenging activity at 30 uM measured after 5 mins by spectrophotometric assay relative to control. The test is classed as functional.
Test [19] can be described thus: Antioxidant activity assessed as increase in total ferric ion reducing activity at 150 uM using FeCl3.H2O and TPTZ incubated for 60 mins by FRAP assay relative to control. The class given is functional. More on the design: scale not given: the % may be the effect or the level left.
The nature of test [20]: Antioxidant activity assessed as ABTS radical scavenging activity at 30 uM measured after 30 mins by spectrophotometric assay relative to control. The class given is functional.
The target of test [21] is Microtubule-associated protein tau (Homo sapiens) (UniProt P10636). In words: Inhibition of tau aggregation (unknown origin) at 10 uM expressed in Escherichia coli BL21 (DE3) incubated for 24 hrs by thioflavin T-based fluorometric assay relative to control.
A further test addresses Beta-secretase 1 (Homo sapiens, UniProt P56817). To be noted: 50 uM.
A short description of test [22]: Antioxidant activity assessed as increase in total ferric ion reducing activity at 30 uM using FeCl3.H2O and TPTZ incubated for 30 mins by FRAP assay relative to control. The class given is functional. More on the design: scale not given: the % may be the effect or the level left.
Test [23] can be described thus: Antioxidant activity assessed as ABTS radical scavenging activity at 30 uM measured after 60 mins by spectrophotometric assay relative to control. The test is classed as functional.
A further test concerns the target Cholinesterase (Equus caballus, UniProt P81908).

Sequence of Acetylcholinesterase (Electrophorus electricus) (O42275 24-633 limits assumed): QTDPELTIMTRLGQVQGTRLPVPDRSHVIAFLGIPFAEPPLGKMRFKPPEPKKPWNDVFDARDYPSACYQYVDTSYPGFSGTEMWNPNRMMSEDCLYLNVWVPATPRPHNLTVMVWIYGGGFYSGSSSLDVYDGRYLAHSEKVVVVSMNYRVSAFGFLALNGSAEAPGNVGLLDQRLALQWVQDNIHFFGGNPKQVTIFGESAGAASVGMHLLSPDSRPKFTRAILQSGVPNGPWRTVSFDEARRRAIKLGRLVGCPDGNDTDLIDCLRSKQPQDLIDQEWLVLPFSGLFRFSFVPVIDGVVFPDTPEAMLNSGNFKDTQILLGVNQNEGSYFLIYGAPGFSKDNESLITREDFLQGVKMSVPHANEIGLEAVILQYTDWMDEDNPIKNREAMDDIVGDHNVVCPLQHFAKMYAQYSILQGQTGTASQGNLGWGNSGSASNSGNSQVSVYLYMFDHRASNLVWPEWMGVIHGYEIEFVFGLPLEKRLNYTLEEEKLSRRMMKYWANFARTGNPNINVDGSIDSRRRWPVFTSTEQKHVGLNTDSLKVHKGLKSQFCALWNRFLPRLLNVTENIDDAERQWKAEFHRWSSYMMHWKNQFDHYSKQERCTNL
Sequence of Amyloid-beta precursor protein (Homo sapiens) (P05067 whole entry): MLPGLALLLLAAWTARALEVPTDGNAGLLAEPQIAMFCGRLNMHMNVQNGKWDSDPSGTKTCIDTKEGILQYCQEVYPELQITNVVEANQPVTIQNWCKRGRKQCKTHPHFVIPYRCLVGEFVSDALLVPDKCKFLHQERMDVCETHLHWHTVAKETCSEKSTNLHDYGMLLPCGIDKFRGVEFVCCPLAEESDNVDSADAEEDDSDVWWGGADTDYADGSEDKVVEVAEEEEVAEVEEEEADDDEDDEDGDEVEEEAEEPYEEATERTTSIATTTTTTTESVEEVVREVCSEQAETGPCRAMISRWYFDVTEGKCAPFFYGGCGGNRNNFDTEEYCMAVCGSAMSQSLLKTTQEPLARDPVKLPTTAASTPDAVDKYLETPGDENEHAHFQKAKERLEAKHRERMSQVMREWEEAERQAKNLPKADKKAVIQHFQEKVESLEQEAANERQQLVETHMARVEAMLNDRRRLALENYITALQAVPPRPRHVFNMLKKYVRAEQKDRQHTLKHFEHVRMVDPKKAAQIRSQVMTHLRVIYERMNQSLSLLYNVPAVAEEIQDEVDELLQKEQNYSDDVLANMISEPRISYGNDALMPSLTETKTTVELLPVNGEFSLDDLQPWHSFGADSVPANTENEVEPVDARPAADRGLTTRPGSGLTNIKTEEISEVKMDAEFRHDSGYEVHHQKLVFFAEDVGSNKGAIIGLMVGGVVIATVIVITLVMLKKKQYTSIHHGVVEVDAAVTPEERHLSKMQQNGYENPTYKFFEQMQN
Sequence of Microtubule-associated protein tau (Homo sapiens) (P10636 whole entry): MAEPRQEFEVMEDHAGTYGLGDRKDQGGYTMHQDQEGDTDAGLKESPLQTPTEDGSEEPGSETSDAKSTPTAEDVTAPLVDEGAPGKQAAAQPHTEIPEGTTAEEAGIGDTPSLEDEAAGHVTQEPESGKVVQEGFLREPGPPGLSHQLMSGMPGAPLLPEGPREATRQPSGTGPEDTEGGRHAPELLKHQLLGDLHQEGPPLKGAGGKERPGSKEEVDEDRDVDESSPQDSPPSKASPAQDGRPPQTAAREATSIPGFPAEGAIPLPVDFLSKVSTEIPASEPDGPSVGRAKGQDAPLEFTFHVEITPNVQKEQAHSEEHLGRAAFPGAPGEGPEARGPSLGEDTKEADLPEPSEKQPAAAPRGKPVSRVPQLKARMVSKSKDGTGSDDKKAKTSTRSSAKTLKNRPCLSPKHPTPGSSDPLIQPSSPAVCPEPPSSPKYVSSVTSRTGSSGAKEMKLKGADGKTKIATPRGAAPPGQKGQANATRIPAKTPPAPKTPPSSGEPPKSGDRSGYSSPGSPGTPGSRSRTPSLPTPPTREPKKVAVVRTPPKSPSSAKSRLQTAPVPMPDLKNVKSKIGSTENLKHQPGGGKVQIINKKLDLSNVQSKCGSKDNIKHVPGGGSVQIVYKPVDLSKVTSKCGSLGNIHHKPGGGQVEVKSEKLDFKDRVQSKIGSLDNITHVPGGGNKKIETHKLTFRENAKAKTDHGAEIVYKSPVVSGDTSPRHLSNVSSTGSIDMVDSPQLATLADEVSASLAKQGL
Sequence of Cholinesterase (Equus caballus) (P81908 whole entry): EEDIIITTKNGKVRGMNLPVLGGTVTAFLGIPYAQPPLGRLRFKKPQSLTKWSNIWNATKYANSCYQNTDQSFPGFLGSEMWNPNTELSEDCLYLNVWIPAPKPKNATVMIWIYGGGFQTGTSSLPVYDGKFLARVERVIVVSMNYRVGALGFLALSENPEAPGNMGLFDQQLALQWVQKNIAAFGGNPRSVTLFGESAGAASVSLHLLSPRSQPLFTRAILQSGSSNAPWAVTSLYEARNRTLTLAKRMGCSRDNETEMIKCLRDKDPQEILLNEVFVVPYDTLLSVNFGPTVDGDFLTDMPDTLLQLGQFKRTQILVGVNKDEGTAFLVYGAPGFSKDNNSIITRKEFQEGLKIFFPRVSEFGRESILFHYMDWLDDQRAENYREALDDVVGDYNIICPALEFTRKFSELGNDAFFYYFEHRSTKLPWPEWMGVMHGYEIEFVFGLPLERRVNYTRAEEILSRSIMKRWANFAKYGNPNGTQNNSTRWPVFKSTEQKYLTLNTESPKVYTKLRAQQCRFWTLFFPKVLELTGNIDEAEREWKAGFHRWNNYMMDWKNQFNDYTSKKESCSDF
Sequence of Beta-secretase 1 (P56817 whole entry): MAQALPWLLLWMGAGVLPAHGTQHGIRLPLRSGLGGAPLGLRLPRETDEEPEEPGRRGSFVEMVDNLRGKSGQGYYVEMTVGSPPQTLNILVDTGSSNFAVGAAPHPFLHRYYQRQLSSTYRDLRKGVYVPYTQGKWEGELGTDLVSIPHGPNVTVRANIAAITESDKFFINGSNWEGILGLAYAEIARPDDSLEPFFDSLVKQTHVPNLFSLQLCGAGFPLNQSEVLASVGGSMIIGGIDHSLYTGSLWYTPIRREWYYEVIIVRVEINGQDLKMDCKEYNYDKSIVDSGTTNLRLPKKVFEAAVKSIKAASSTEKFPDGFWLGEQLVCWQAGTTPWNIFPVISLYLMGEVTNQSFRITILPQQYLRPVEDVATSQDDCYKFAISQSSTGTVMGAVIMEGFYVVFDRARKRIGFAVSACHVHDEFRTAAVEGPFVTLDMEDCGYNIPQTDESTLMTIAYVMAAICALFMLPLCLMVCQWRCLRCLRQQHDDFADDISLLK
Sequence of Cholinesterase (P81908 whole entry): as the sequence (P81908 whole entry) above

Consider `c1ccc(CN2CCC(NCCN3CCC(c4ccccc4)CC3)C2)cc1` (stereo unspecified), for which the Activity in test [1] is 10%; in test [2], 3%; in test [3], 15%; in test [5], 39%; in test [6] it was 75%; in [7], 0%. The Activity was found to be 6% in test [9]; 4% in test [10]; 6% in test [11]; 84% in test [12]; 2% in test [13]; 37% in [16]. Further, the Activity in [17] was found to be 48%; in [18], 13%; in test [19], 8%; in [20], 24%; in [22] it was 3%; in test [23], 31%. For the same compound, the result in test [4] was Active. Moreover, the inhibition in test [8] was less than 10%; in test [14], 37.4%; in test [15], 45.5%; in [21], 68.1%; against Beta-secretase 1, 11.8%.
For `O=C(CN1CCC(c2ccccc2)CC1)NC1CCN(Cc2ccccc2)C1` (stereo unspecified), the result in [4] was Active. For the same compound, the inhibition in test [8] was less than 10%; in test [14], 43.7%; in test [15] it was 33.3%; in test [21] it was 53.6%; on Beta-secretase 1 it was 48.4%.
Consider `O=C(CN1CCCC(CCc2ccccc2)C1)NC1CCN(Cc2ccccc2)C1` (stereo unspecified), for which it took 10.3 µM to reach half-maximal inhibition against Cholinesterase (IC50). Also, the figures for the inhibition (in [8]; against Beta-secretase 1) were 26.7% and 28.8%, respectively.
Regarding `c1ccc(CN2CCC(NCCN3CCN(c4ccccc4)CC3)C2)cc1` (stereo unspecified), the Activity was determined as 55% in test [1]; 55% in test [2]; 50% in test [3]; 78% in [5]; 98% in test [6]; 23% in test [7]. Further, the Activity came out at 68% in [9]; 54% in test [10]; 68% in test [11]; 99% in [12]; 15% in [13]; 76% in test [16]. Besides, the Activity in test [17] was 85%; in test [18], 42%; in test [19], 79%; in test [20], 71%; in test [22] it was 39%; in test [23], 80%. Further, the outcome in test [4] was Active. Further, the inhibition in test [8] was less than 10%; in [14], 38.5%; in test [15] it was 23.9%; in test [21], 79.5%; at Beta-secretase 1, 40.7%.
For `O=C(CN1CCN(CCc2ccccc2)CC1)NC1CCN(Cc2ccccc2)C1` (stereo unspecified), the inhibition in test [8] is less than 10%; in test [14] it was 15.2%; in test [15], 15.3%; in [21] it was 61.3%; on Beta-secretase 1 it was 48.6%.
`O=C(CCN1CCC(CCc2ccccc2)CC1)NC1CCN(Cc2ccccc2)C1` (stereo unspecified): the inhibition is 32.9% in [8]; 47.8% in test [14]; 16.3% in test [15]; 57.9% in test [21]; less than 10% against Beta-secretase 1.
Consider `c1ccc(CCC2CCN(CCCNC3CCN(Cc4ccccc4)C3)CC2)cc1` (stereo unspecified), for which the inhibition in test [8] is 34.9%; in test [14] it was 36.3%; in [15], 25.6%; in test [21] it was 52.8%; on Beta-secretase 1 it was 17%.
For the compound `O=C(CN1CCN(Cc2ccccc2)CC1)NC1CCN(Cc2ccccc2)C1` (stereo unspecified), the inhibition is less than 10% in [8]; 37.4% in [14]; 17.8% in test [15]; 66.7% in test [21]; 40.7% on Beta-secretase 1.
As to `O=C(CN1CCCC(Cc2ccccc2)C1)NC1CCN(Cc2ccccc2)C1` (stereo unspecified), the IC50 at Cholinesterase was 7 µM. Besides, the inhibition is 27.6% in test [8], 45.1% in [14], 54.2% in test [21] and less than 10% against Beta-secretase 1.
Turning to `O=C(CN1CCN(c2ccccc2)CC1)NC1CCN(Cc2ccccc2)C1` (stereo unspecified), the Activity amounted to 44% in test [1]; 49% in test [2]; 23% in test [3]; 49% in [5]; 66% in test [6]; 14% in [7]. In addition, the Activity in test [9] was 60%; in test [10] it was 44%; in test [11] it was 58%; in [12], 76%; in test [13], 10%; in [16], 36%. Moreover, the Activity turned out to be 59% in test [17]; 23% in test [18]; 72% in test [19]; 50% in test [20]; 33% in test [22]; 62% in test [23]. Besides, the inhibition in [8] is less than 10%; in test [14], 34.5%; in [15], less than 10%; in test [21] it was 74.8%; against Beta-secretase 1, 43.7%.
Regarding `O=C(CN1CCCC(c2ccccc2)C1)NC1CCN(Cc2ccccc2)C1` (stereo unspecified), the inhibition in test [8] was 30.6%; in test [14], 38.8%; in test [15], 46%; in test [21], 43.6%; against Beta-secretase 1, 14.7%.
Take `O=C(CN1CCC(CCc2ccccc2)CC1)NC1CCN(Cc2ccccc2)C1` (stereo unspecified): the inhibition in [8] was less than 10%; in test [14] it was 48.3%; in [15] it was 33.1%; in test [21] it was 53.5%; at Beta-secretase 1 it was 50.5%.
Regarding `c1ccc(CCN2CCN(CCNC3CCN(Cc4ccccc4)C3)CC2)cc1` (stereo unspecified), the Activity in [1] was 39%; in test [2] it was 10%; in test [3], 22%; in test [5], 41%; in test [6], 73%; in test [7], 5%. For the same compound, the Activity was determined as 18% in test [9]; 15% in test [10]; 40% in test [11]; 82% in [12]; 8% in [13]; 46% in test [16]. Further, the Activity in test [17] worked out at 48%; in test [18], 14%; in [19], 43%; in [20], 28%; in test [22] it was 9%; in [23], 34%. The inhibition was less than 10% in test [8]; 34.7% in [14]; 25.7% in [15]; 59.6% in [21]; 33.5% against Beta-secretase 1.
`O=C(CN1CCN(C(c2ccccc2)c2ccccc2)CC1)NC1CCN(Cc2ccccc2)C1` (stereo unspecified): the inhibition is less than 10% in test [8]; 27.9% in test [14]; less than 10% in test [15]; 61.2% in [21]; 40% against Beta-secretase 1.
For `Cc1c(C)c2c(c(C)c1O)CCC(C)(C(=O)O)O2` (stereo unspecified), the Activity in [1], in test [2], in [3], in test [5], in [6] and in test [7] was 100% in each case. Besides, the Activity in test [9], in test [10], in test [11], in test [12], in [13] and in test [16] was 100% throughout. Further, the Activity in [17], in [18], in test [19], in test [20], in [22] and in test [23] was 100% throughout.
